From ChEMBL document CHEMBL4024756, “Identification of 4-Phenoxyquinoline Based Inhibitors for L1196M Mutant of Anaplastic Lymphoma Kinase by Structure-Based Design” (J Med Chem, 2017) come the findings set out here.

The source made the active and inactive calls. The calls are words filed in the database; no cut-off is given here.

The test has as its system ALK tyrosine kinase receptor (Homo sapiens), Q9UM73 [L1196M].

ALK tyrosine kinase receptor (Homo sapiens), Q9UM73 [L1196M], sequence (Q9UM73 whole entry L1196M, looked up): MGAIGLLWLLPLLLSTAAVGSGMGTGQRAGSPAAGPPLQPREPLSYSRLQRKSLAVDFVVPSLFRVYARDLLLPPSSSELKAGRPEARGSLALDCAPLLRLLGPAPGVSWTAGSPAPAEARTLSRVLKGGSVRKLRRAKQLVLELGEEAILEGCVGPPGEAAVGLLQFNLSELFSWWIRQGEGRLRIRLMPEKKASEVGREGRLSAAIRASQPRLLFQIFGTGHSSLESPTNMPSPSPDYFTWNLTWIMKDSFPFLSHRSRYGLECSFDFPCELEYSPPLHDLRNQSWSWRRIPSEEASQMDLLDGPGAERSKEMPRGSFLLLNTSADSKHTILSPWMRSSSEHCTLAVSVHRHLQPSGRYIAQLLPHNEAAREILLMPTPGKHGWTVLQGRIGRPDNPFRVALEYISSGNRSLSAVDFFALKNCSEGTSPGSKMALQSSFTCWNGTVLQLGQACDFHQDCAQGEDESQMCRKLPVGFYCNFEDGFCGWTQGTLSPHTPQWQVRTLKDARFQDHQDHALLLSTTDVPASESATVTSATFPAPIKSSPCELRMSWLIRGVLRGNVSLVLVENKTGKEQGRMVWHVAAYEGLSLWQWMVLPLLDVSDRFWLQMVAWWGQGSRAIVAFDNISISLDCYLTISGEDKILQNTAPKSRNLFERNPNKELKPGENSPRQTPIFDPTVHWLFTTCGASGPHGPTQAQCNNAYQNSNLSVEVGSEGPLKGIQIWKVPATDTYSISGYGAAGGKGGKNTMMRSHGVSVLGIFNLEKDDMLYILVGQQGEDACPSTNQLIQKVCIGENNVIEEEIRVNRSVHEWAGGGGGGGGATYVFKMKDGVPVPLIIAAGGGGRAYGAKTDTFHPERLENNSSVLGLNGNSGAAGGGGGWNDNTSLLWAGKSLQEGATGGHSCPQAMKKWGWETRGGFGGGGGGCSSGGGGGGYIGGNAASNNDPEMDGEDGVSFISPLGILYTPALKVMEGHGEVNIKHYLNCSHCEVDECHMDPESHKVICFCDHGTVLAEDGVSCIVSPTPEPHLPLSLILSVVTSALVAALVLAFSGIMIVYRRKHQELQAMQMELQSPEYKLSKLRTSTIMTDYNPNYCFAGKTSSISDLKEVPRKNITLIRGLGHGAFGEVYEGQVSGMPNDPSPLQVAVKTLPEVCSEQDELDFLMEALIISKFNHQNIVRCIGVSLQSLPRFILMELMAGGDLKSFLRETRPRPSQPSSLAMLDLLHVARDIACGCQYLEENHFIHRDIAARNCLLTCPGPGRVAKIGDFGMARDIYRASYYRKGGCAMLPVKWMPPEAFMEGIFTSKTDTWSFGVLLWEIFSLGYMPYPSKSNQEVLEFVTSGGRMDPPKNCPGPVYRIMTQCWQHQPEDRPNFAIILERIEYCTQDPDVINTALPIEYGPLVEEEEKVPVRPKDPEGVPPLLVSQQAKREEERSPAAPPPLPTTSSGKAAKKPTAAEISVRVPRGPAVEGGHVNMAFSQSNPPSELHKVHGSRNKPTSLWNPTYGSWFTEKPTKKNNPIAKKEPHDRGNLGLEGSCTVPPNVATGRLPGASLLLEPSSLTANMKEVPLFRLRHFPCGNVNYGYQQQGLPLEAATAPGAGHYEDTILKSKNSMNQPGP

Take `Cc1ccc(Oc2ccnc3cc(-c4cnn(C5CCNCC5)c4)ccc23)cc1`: the TDI entry is “inactive”.
